pKi: −log10 of the molar value. Like-named read-outs stand apart in the source and are kept apart here.
What was measured:
[1] = molecular target: T1, A1 adenosine receptor (Mesocricetus auratus, UniProt A0A1U8BVR4); test: [35S]GTPγS binding assay, A1-agonist stimulated; type: biochemical, hamster; details: agonist stimulated [35S]GTPγS binding, CPA = 100%
T1 construct: endogenous in cells; host or cells: DDT1 (DDT1 MF-2) hamster vas deferens smooth muscle cells
T1 sequence (A0A1U8BVR4 1-326): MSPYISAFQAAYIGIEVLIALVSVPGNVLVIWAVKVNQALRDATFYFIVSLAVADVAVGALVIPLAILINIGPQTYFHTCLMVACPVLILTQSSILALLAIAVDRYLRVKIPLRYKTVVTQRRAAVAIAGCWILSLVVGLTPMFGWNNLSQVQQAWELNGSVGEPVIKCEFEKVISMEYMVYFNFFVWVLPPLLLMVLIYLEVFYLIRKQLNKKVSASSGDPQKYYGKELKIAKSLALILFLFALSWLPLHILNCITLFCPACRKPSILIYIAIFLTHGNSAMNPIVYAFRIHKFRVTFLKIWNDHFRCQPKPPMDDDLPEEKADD
Method: (§1) Attached cells were washed twice with HBSS (2×10 ml), scraped free of the plate with the aid of a rubber policeman in 5 ml of 50 mM Tris-HCI buffer pH 7.4 at 4° C. and the suspension homogenized for 10 s. The suspension was then centrifuged at 27,000×g for 10 min. The pellet was resuspended in homogenization buffer by vortexing and centrifuged as described above. The final pellet was resuspended in 1 vol of 50 mM Tris-HCI buffer pH 7.4 containing 5 mM MgCl2 for A1 AdoR assays. For the [^35S]GTPγS binding assay the final pellet was resuspended in 50 mM Tris-HCI pH 7.4 containing 5 mM MgCl2, 100 mM NaCl and 1 mM dithiothreitol. This membrane suspension was then placed in liquid nitrogen for 10 min, thawed and used for assays. The protein content was determined by the method of Bradford (1976) using bovine serum albumin as standard.
A1-agonist stimulated [^35S]GTPγS binding was determined by a modification of the method described by Giersckik et al. (1991) and Lorenzen et al. (1993). […] Nonspecific binding was determined by the addition of 10 μM GTPγS. […] Previous reports have shown that agonist stimulated [^35S]GTPγS binding was dependent on the presence of GDP (Gierschik et al., 1991; Lorenzen et al., 1993; Traynor & Nahorski, 1995). […] In saturation experiments, 0.5 nM [^35S]GTPγS was incubated with 0.5-1000 nM GTPγS. At the end of the incubation, each suspension was filtered and the retained radioactivity determined as described above.

[2] = molecular target: T2, A1 receptor (Mesocricetus auratus, UniProt A0A1U8BVR4); test: Competitive binding assay, DDT1 cell membranes, [3H]CCPA; set-up: species or system hamster; details: [3H]CCPA 2 nM
T2 construct: endogenous in cells; host or cells: DDT1 (DDT1 MF-2) hamster vas deferens smooth muscle cells
T2 sequence (A0A1U8BVR4 1-326): T1 sequence (A0A1U8BVR4 1-326)
Method: Cells were subcultured twice weekly by dispersion in Hank's Balanced Salt Solution (HBSS) without the divalent cations and containing 1 mM EDTA. The cells were then seeded in growth medium at a density of 1.2×10^5 cells per plate and experiments were performed 4 days later at approximately one day preconfluence.
as §1, with “assays.” for “assays. The protein content was determined by the method of Bradford (1976) using bovine serum albumin as standard.”
Competitive Binding Assay Pig striatum were prepared by homogenation in 50 mM Tris buffer (5× volume of tissue mass pH=7.4). After centrifilgation at 19,000 rpm for 25 minutes at 4° C., the supernatant was discarded, and the process was repeated twice. Compositions of this invention were assayed to determine their affinity for the A1 receptor in a pig striatum membrane prep or a DDT, membrane prep. Briefly, 0.2 mg of pig striatal membranes or DDT, cell membranes were treated with adenosine deaminase and 50 mM Tris buffer (pH=7.4) followed by mixing. To the pig membranes was added 2 μL of serially diluted DMSO stock solution of the compounds of this invention at concentrations ranging from 100 microM to 10 nM. The control received 2 microL of DMSO alone, then the antagonist [^3H] 8-cyclopentylxanthine (CPX) for pig striatum or the agonist [^3H] 2-chloro-6-cyclopentyladenosine (CCPA) for DDT, membranes in Tris buffer (50 mnM, pH of 7.4) was added to achieve a final concentration of 2 nM. After incubation at 23 C for 2 h, the solutions were filtered using a membrane harvester using multiple washing of the membranes (3×). The filter disks were counted in scintillation cocktail affording the amount of displacement of triated CPX or by the competitive binding compositions of this invention. In the case of the DDT1 cell membranes, some of the determinations of binding affinity (Ki) were made in the presence of Gpp(NH)p as noted in Table 1 (note: Gpp(NH)p shifts the receptor to a low affinity form). Greater than a 5 point curve was used to generate Ki's and the number of experiments is indicated in the column marked in Table 1 below.

[3] = DDT1 cell membranes, read-out: Ki-DDT1 cell membrane
[4] = in presence of Gpp(NH)p (low affinity form), read-out: Ki - DDT1 cell membrane In presence of Gpp (NH)p

Structure (SMILES) | Emax [1] | pKi [2, 3] | pKi [2, 4] | GTPγS [1]
CNC(=O)OC[C@H]1O[C@@H](n2cnc3c(N[C@@H]4CCOC4)nc(Cl)nc32)[C@H](O)[C@@H]1O [Compound 13, [(5-{6-[((3R)oxolan-3-yl)amino]-2-chloropurin-9-yl}(3S,2R,4R,5R)3,4dihydroxyoxolan-2-yl)methoxy]-N-methylcarboxamide] | 77% | 6.89 |  | 
CNC(=O)SC[C@H]1O[C@@H](n2cnc3c(N[C@@H]4CCOC4)ncnc32)[C@H](O)[C@@H]1O [Compound 22, [(5-{6-[((3R)oxolan-3-yl)amino]purin-9-yl}(2S,3S,4R,5R)-3,4&hydroxyoxolan-2-yl)methythio]-N-methylcarboxamide] | 98% | 7.44 |  | 
CCNC(=O)OC[C@H]1O[C@@H](n2cnc3c(N[C@@H]4CCOC4)ncnc32)[C@H](O)[C@@H]1O [Compound 25, [(5-{6-[((3R)oxolan-3-yl)amino]purin-9-yl}(3S,2R,4R,5R)-3,4-dihydroxyoxolan-2-yl)methoxy]-N-ethylcarboxamide] |  |  | 6.14 | 
CCCNC(=O)OCC1OC(n2cnc3c(N[C@@H]4CCOC4)ncnc32)C(O)C1O (stereo partly drawn) [Compound 26] | 73% |  | 6.29 | 
CCCCNC(=O)OCC1OC(n2cnc3c(N[C@@H]4CCOC4)ncnc32)C(O)C1O (stereo partly drawn) [Compound 27] | 44% | 5.79 | 6.95 | 
O=C(NC1CCCC1)OCC1OC(n2cnc3c(N[C@@H]4CCOC4)ncnc32)C(O)C1O (stereo partly drawn) [Compound 28] |  | 7.49 | 6.09 | 
O=C(NCc1ccccc1)OC[C@H]1O[C@@H](n2cnc3c(N[C@@H]4CCOC4)ncnc32)[C@H](O)[C@@H]1O [Compound 29, [(5-{6-[((3R)oxolan-3-yl)amino]purin-9-yl}(3S,2R,4R,5R)-3,4dihydroxyoxolan-2-yl)methoxy]-N-benzylcarboxamide] |  |  | 6.32 | 
O=C(NCc1ccc(F)cc1)OCC1OC(n2cnc3c(N[C@@H]4CCOC4)ncnc32)C(O)C1O (stereo partly drawn) [Compound 30] |  | 5.66 | 5.76 | 
O=C(NC1CCCCC1)OC[C@H]1O[C@@H](n2cnc3c(N[C@@H]4CCOC4)ncnc32)[C@H](O)[C@@H]1O [Compound 31, {(5-{6-[((3R)oxolan-3-yl)amino]purin-9-yl}(3S,2R,4R,5R)3,4-dihydroxyoxolan-2-yl)methoxy]-N-cyclohexylcarboxamide] |  |  | 5.96 | 
CC(C)NC(=O)OCC1OC(n2cnc3c(N[C@@H]4CCOC4)ncnc32)C(O)C1O (stereo partly drawn) [Compound 32] | 91% |  | 6.37 | 
O=C(NC1CC1)OCC1OC(n2cnc3c(N[C@@H]4CCOC4)ncnc32)C(O)C1O (stereo partly drawn) [Compound 33] |  |  | 5.77 | 
CN(C)C(=O)OC[C@H]1O[C@@H](n2cnc3c(N[C@@H]4CCOC4)ncnc32)[C@H](O)[C@@H]1O [Compound 44, {(5-{6-[((3R)oxolan-3-yl)amino]purin-9-yl}(3S,2R,4R,5R)-3,4-dihydroxyoxolan-2-yl)methoxy]-N,N-dimethylcarboxamide] |  |  | 5.73 | 
CNC(=S)OC[C@H]1O[C@@H](n2cnc3c(N[C@@H]4CCOC4)ncnc32)[C@H](O)[C@@H]1O [Compound 45, 2-{6-[((3R)oxolan-3-yl)amino]purin-9-yl}(4S,2R,3R,5R)-5 {1(methylamino)thioxomethoxylmethyl}oxolane3,4diol] | 77% |  | 6.85 | 
CCNC(=S)OC[C@H]1O[C@@H](n2cnc3c(N[C@@H]4CCOC4)ncnc32)[C@H](O)[C@@H]1O [Compound 46, 2-{6[((3R)oxolan-3-yl)amino]purin-9-yl}(4S,2R,3R,5R)-5-{[(ethylamino)thioxomethoxy]methyl}oxolane3,4diol] | 77% |  | 6.87 | 
CC(C)NC(=S)OC[C@H]1O[C@@H](n2cnc3c(N[C@@H]4CCOC4)ncnc32)[C@H](O)[C@@H]1O [Compound 47, 2-{6-[((3R)oxolan-3-yl)amino]purin-9-yl}(4S,2R,3R,5R)-5({[(methylethyl)amino]thioxomethoxy}methyl)oxolane3,4-diol] | 84% |  | 6.96 | 
CCCCNC(=S)OCC1OC(n2cnc3c(N[C@@H]4CCOC4)ncnc32)C(O)C1O (stereo partly drawn) [Compound 48] | 70% |  | 6.03 | 
CCCNC(=S)OC[C@H]1O[C@@H](n2cnc3c(N[C@@H]4CCOC4)ncnc32)[C@H](O)[C@@H]1O [Compound 49, 2-{6-[((3R)oxolan-3-yl)amino]purin-9-yl}(4S,2R,3R,5R)-5 {[(propylamino)thioxomethoxy]methyl}oxolane3,4-diol] | 89% |  | 6.84 | 
OC1C(COC(=S)N2CCCCC2)OC(n2cnc3c(N[C@@H]4CCOC4)ncnc32)C1O (stereo partly drawn) [Compound 50] | 88% | 6.19 | 5.71 | 
O[C@@H]1[C@H](O)[C@@H](COC(=S)NC2CCCC2)O[C@H]1n1cnc2c(N[C@@H]3CCOC3)ncnc21 [Compound 51, 2-{6-[((3R)oxolan-3-yl)amino]purin-9-yl}(4S,2R,3R,5R)-5{[(cyclopentylamino)thioxomethoxy]methyl}oxolane3,4-diol] |  |  | 7.06 | 
O[C@@H]1[C@H](O)[C@@H](COC(=S)N2CCCC2)O[C@H]1n1cnc2c(N[C@@H]3CCOC3)ncnc21 [Compound 52] |  |  | 5.95 | 77%
CN(C)C(=S)OC[C@H]1O[C@@H](n2cnc3c(N[C@@H]4CCOC4)ncnc32)[C@H](O)[C@@H]1O [Compound 53, 2-{6-[((3R)oxolan-3-yl)amino]purin-9-yl}(4S,2R,3R,5R)-5-{[(dimethylamino)thioxomethoxy]methyl}oxolane-3,4-diol] | 85% | 6.61 | 5.68 | 
O=C(O)CNC(=O)OC[C@H]1O[C@@H](n2cnc3c(N[C@@H]4CCOC4)ncnc32)[C@H](O)[C@@H]1O [Compound 68, 2-{[(5-{6-[((3R)oxolan-3-yl)amino]purin-9-yl}(3S,2R,4R,5R)-3,4-dihydroxyoxolan-2-yl)methoxy]carbonylamino}acetic acid] | 76% |  |  | 
O=C(NC[C@H]1O[C@@H](n2cnc3c(N[C@@H]4CCOC4)ncnc32)[C@H](O)[C@@H]1O)NC1CCCC1 [Compound 76, N-[(5-{6[((3R)oxolan-3yl)amino]purin-9-yl}(3S,2R,4R,5R)3,4-dihydroxyoxolan-2-yl)methyl](cyclopentylamino)carboxamide] |  | 4.94 |  | 
CCNC(=O)NCC1OC(n2cnc3c(NC4CCOC4)ncnc32)C(O)C1O [Compound 79, N-[(5-{16[((3R)oxolan-3-yl)amino]purin-9-yI}(3S,2R,4R,5R3,4-dihydroxyoxolan-2-yl)methyl](ethylamino)carboxamide] |  |  | 6.78 | 

From patent publication US20020037872A1, “N6 heterocyclic 5' modified adenosine derivatives” (CV Therapeutics, Inc., priority 1999, published 2002)
